Key:
Type in all cases: in vivo, male rats of Wistar line
[1] = system: experimental rat hypercholesterolemia model; assay: Lipid spectrum of blood in experimental rat hypercholesterolemia model
Description: The animals used were male rats of Wistar line. […] The proposed model using rats as the experimental animals is a reproducible standard model for evaluation of hypocholesterolemic effect.
(§1) Evaluation of hypocholesterolemic efficacy and safety of pharmaceutical combination was performed in vivo in experimental rat hypercholesterolemia model.
(§2) For 90 days the studied animals received hypercholesterol diet for pathology induction. The diet included Cholesterol+Cholic acid+Overheated fats (deep fat).
For 90 days the animals received the said ration ad libitum (30 g feed per animal). Development of hypercholesterolemia in animals was evaluated based on changes in lipid spectrum parameters on Day 30 of the study.
(§3) Drugs were introduced intragastrically with an esophageal bougie daily on Day 31-90 of the study at the same time of day.
Biochemical parameters and activity of blood serum enzymes (total cholesterol (CHS), LDL-CHS, HDL-CHS, triglycerides.
1.0-1.84 ml blood samples for the study of biochemical parameters were taken from tail vein of rats. Blood samples were taken from the animals after 14-15-hour's fasting at same time of day (9.00-11.00). For biochemical parameters tests a Biochemical Analyzer A-25 (Biosystems, Spain) was used. […]

[2] = Mass coefficients of organs (pancreas, liver, kidneys) of rats; details: M ± m; for weight coefficient, Kidneys / weight coefficient, Liver: in %
Description: To calculate mass coefficients the pancreas, liver and kidneys of the animals were extracted. The organs were weighed and the mass coefficients were calculated by the following formula:
Mass coefficient=(organ weight/animal body weight)×100%

[3] = system: experimental rat hypercholesterolemia model; assay: Biochemical blood analysis (drug toxicity parameters) in rat hypercholesterolemia model
Description: as §1, §2, §3
Biochemical parameters and activity of serum enzymes (aspartate- and alanine aminotransferase, creatine phosphokinase, urea, serum amylase, total bilirubin, direct bilirubin, indirect bilirubin, serum glucose, cations K^+, Na^+).
1.0-1.84 ml blood samples for the study of biochemical parameters were taken from tail vein of rats. Blood samples were taken from the animals after 14-15-hour's fasting at same time of day (9.00-11.00). For biochemical parameters tests a Biochemical Analyzer A-25 (Biosystems, Spain) was used.
Vol. 4. pp. 1794-1798; Pearlman F C and Lee R T Y. Clin Chem 1974, 20, 447-453; Zoppi F et al, Peracino A., Fenili D., Marcovina S. and Ramella C. Giorn It Chim Cl. […] C. et al Clin Chem. 1974. Vol. 20. pp. 470-475; and in Meiattini F., et al, Clin Chem. 1978. Vol. 24. pp. 2161-2165 (total cholesterol); Warnick G R et al. Clin Chem 2001, 47, 1579-96 (HDL/LDL); Bucolo G and David H. Clin Chem. 1973.-Vol. 19. pp. 476-482; and in Fossati P. and, Prencipe L., Clin Chem. 1982. Vol. 28. pp. 2077-2080 (triglycerides); Trinder P. Ann Clin Biochem. 1969. Vol. 6. pp. 24-27).

[4] = Day 30 of treatment (Day 60 of study), dose 80 mg
[5] = Day 60 of treatment (Day 90 of study), dose 80 mg
[6] = FV + GA 80 + 90 mg, FV 80 mg, GA 90 mg
[7] = blood, Day 60 of the treatment (Day 90 of the study), FV + GA 80 + 90 mg, FV 80 mg, GA 90 mg
[8] = Day 30 of treatment (Day 60 of study), dose 40 mg
[9] = Day 60 of treatment (Day 90 of study), dose 40 mg
[10] = PV + GtA 40 + 108 mg, PV 40 mg, GtA 108 mg
[11] = group 3 of the rosuvastatin table, 20 mg
[12] = blood, Day 60 of the treatment (Day 90 of the study), PV + GtA 40 + 108 mg, PV 20 mg, GtA 108 mg
[13] = Day 30 of treatment (Day 60 of study), dose 108 mg
[14] = Day 60 of treatment (Day 90 of study), dose 108 mg
[15] = Day 30 of treatment (Day 60 of study), dose 20 mg
[16] = Day 30 of treatment, 20 mg as monotherapy
[17] = Day 60 of treatment (Day 90 of study), dose 20 mg

With `CC(C)n1c(/C=C/[C@@H](O)C[C@@H](O)CC(=O)O)c(-c2ccc(F)cc2)c2ccccc21` (stereo in doubt) [FV, (3R,5S,6E)-7-[3-(4-fluorophenyl)-1-(propan-2-yl)-1H-indol-2-yl]-3,5-dihydroxyhept-6-enoic acid] the “HDL CHS” value [1, 4] was 0.61 ± 0.04 mmol/L, the “LDL CHS” value [1, 4] was 3.31 ± 0.44 mmol/L and the TG [1, 4] was 1.39 ± 0.14 mmol/L. The “Total CHS” value [1, 4] was 5.0 ± 0.3 mmol/L, the “HDL CHS” value [1, 5] was 0.72 ± 0.03 mmol/L and the “LDL CHS” value [1, 5] was 3.52 ± 0.44 mmol/L. The TG [1, 5] was 1.45 ± 0.14 mmol/L, the “Total CHS” value [1, 5] was 4.9 ± 0.4 mmol/L and the “weight coefficient, Pancreas” value [2, 6] was 0.37 ± 0.03^1. The “weight coefficient, Kidneys” value [2, 6] was 0.75 ± 0.03, the “weight coefficient, Liver” value [2, 6] was 4.41 ± 0.12 and the ALT [3, 4] was 170 U/l. It also gave an AST [3, 4] of 191 U/l, an Amylase [3, 4] of 637 U/l and a Bilirubin direct [3, 4] of 2.6 mg/dL. For the same molecule, the Bilirubin indirect [3, 4] was 2.2 mg/dL, the Bilirubin total [3, 4] was 4.0 mg/dL and the CPK [3, 4] was 690 U/l. The Glucose [3, 4] was 150 mg/dL, the Potassium [3, 4] was 3 mM and the Sodium [3, 4] was 125 mmol. For the same molecule, the Urea [3, 4] was 7.3 mmol/L, the ALT [3, 7] was 148 U/l and the AST [3, 7] was 200 U/l. For the same molecule, the Amylase [3, 7] was 590 U/l, the Bilirubin direct [3, 7] was 1.4 mg/dL and the Bilirubin indirect [3, 7] was 1.6 mg/dL. It also gave a Bilirubin total [3, 7] of 4.2 mg/dL, a CPK [3, 7] of 680 U/l and a Glucose [3, 7] of 127 mg/dL. It also gave a Potassium [3, 7] of 2.3 mM, a Sodium [3, 7] of 124 mmol and a Urea [3, 7] of 6.3 mmol/L.
With `CC[C@H](C)C(=O)OC1C[C@H](O)C=C2C=C[C@H](C)C(CC[C@@H](O)C[C@@H](O)CC(=O)O)[C@H]21` (stereo in doubt) [PV, (3R,5R)-3,5-dihydroxy-7-((1R,2S,6S,8R,8aR)-6-hydroxy-2-methyl-8-{[(2S)-2-methylbutanoyl]oxy}-1,2,6,7,8,8a-hexahydronaphthalen-1-yl)-heptanoic acid] the “HDL CHS” value [1, 8] was 0.65 ± 0.04 mmol/L, the “LDL CHS” value [1, 8] was 4.12 ± 0.35 mmol/L and the TG [1, 8] was 1.33 ± 0.12 mmol/L. The “Total CHS” value [1, 8] was 4.4 ± 0.3 mmol/L, the “HDL CHS” value [1, 9] was 0.75 ± 0.04 mmol/L and the “LDL CHS” value [1, 9] was 3.70 ± 0.35 mmol/L. The TG [1, 9] was 1.33 ± 0.11 mmol/L, the “Total CHS” value [1, 9] was 4.0 ± 0.3 mmol/L and the “weight coefficient, Pancreas” value [2, 10] was 0.47 ± 0.03^1. For the same molecule, the “weight coefficient, Kidneys” value [2, 10] was 0.76 ± 0.01, the “weight coefficient, Liver” value [2, 10] was 4.47 ± 0.17 and the “weight coefficient, Pancreas” value [2, 11] was 0.49 ± 0.03^1. The “weight coefficient, Kidneys” value [2, 11] was 0.78 ± 0.02, the “weight coefficient, Liver” value [2, 11] was 4.49 ± 0.15 and the ALT [3, 8] was 177 U/l. The AST [3, 8] was 173 U/l, the Amylase [3, 8] was 641 U/l and the Bilirubin direct [3, 8] was 2.8 mg/dL. The Bilirubin indirect [3, 8] was 2.2 mg/dL, the Bilirubin total [3, 8] was 4.7 mg/dL and the CPK [3, 8] was 604 U/l. It also gave a Glucose [3, 8] of 150 mg/dL, a Potassium [3, 8] of 3.4 mM and a Sodium [3, 8] of 127 mmol. For the same molecule, the Urea [3, 8] was 7.0 mmol/L, the ALT [3, 12] was 135 U/l and the AST [3, 12] was 188 U/l. It also gave an Amylase [3, 12] of 586 U/l, a Bilirubin direct [3, 12] of 2.7 mg/dL and a Bilirubin indirect [3, 12] of 1.9 mg/dL. The Bilirubin total [3, 12] was 4.9 mg/dL, the CPK [3, 12] was 598 U/l and the Glucose [3, 12] was 160 mg/dL. For the same molecule, the Potassium [3, 12] was 4.3 mM, the Sodium [3, 12] was 129 mmol and the Urea [3, 12] was 6.0 mmol/L.
For `CC1(C)[C@@H](O)CC[C@]2(C)[C@H]3C(=O)C=C4[C@@H]5C[C@@](C)(C(=O)O)CC[C@]5(C)CC[C@@]4(C)[C@]3(C)CC[C@@H]12` [GtA, (2S,4aS,6aS,6bR,8aR,10S,12aS,12bR,14bR)-10-hydroxy-2,4a,6a,6b,9,9,12a-heptamethyl-13-oxo-1,2,3,4,4a,5,6,6a,6b,7,8,8a,9,10,11,12,12a,12b,13,14b-icosahydropicene-2-carboxylic acid], the “HDL CHS” value [1, 13] was 0.51 ± 0.04 mmol/L, the “LDL CHS” value [1, 13] was 4.40 ± 0.4 mmol/L and the TG [1, 13] was 1.6 ± 0.11 mmol/L. The “Total CHS” value [1, 13] was 4.9 ± 0.5 mmol/L, the “HDL CHS” value [1, 14] was 0.61 ± 0.03 mmol/L and the “LDL CHS” value [1, 14] was 4.24 ± 0.4 mmol/L. The TG [1, 14] was 1.5 ± 0.11 mmol/L, the “Total CHS” value [1, 14] was 4.5 ± 0.5 mmol/L and the “weight coefficient, Pancreas” value [2, 10] was 0.21 ± 0.01^2. The “weight coefficient, Kidneys” value [2, 10] was 0.80 ± 0.02, the “weight coefficient, Liver” value [2, 10] was 4.43 ± 0.10 and the ALT [3, 13] was 97 U/l. It also gave an AST [3, 13] of 130 U/l, an Amylase [3, 13] of 622 U/l and a Bilirubin direct [3, 13] of 1.1 mg/dL. For the same molecule, the Bilirubin indirect [3, 13] was 1.7 mg/dL, the Bilirubin total [3, 13] was 3.2 mg/dL and the CPK [3, 13] was 390 U/l. For the same molecule, the Glucose [3, 13] was 119 mg/dL, the Potassium [3, 13] was 2.8 mM and the Urea [3, 13] was 6.5 mmol/L. The ALT [3, 12] was 101 U/l, the AST [3, 12] was 120 U/l and the Amylase [3, 12] was 599 U/l. It also gave a Bilirubin direct [3, 12] of 1.2 mg/dL, a Bilirubin indirect [3, 12] of 1.8 mg/dL and a Bilirubin total [3, 12] of 2.7 mg/dL. It also gave a CPK [3, 12] of 300 U/l, a Glucose [3, 12] of 112 mg/dL and a Potassium [3, 12] of 3.1 mM. It also gave a Urea [3, 12] of 5.5 mmol/L.
In the case of `CCC(C)(C)C(=O)O[C@H]1C[C@@H](C)C=C2C=C[C@H](C)[C@H](CC[C@@H]3C[C@@H](O)CC(=O)O3)[C@H]21` [SV, (1S,3R,7S,8S,8aR)-8-{2-[(2R,4R)-4-hydroxy-6-oxotetrahydro-2H-pyran-2-yl]ethyl}-3,7-dimethyl-1,2,3,7,8,8a-hexahydronaphthalen-1-yl 2,2-dimethylbutanoate], the “HDL CHS” value [1, 15] is reported as 0.82 ± 0.06 mmol/L, the “LDL CHS” value [1, 15] is reported as 3.75 ± 0.25 mmol/L and the TG [1, 15] is reported as 1.41 ± 0.11 mmol/L. The “Total CHS” value [1, 15] was 5.2 ± 0.2 mmol/L, the “HDL CHS” value [1, 8] was 0.58 ± 0.02 mmol/L and the “LDL CHS” value [1, 8] was 3.54 ± 0.20 mmol/L. The TG [1, 8] was 1.27 ± 0.04 mmol/L, the “Total CHS” value [1, 8] was 4.2 ± 0.2 mmol/L and the “LDL decrease as compared to the control group” value [1, 16] was 35%. The “TG decrease as compared to the control group” value [1, 16] was 18%, the “decrease of the concentration of CHS as compared to the control group” value [1, 16] was 26% and the “increase in concentration of HDL as compared to the control group” value [1, 16] was 86%. The “HDL CHS” value [1, 17] was 0.77 ± 0.05 mmol/L, the “LDL CHS” value [1, 17] was 3.50 ± 0.05 mmol/L and the TG [1, 17] was 1.43 ± 0.11 mmol/L. For the same molecule, the “Total CHS” value [1, 17] was 4.9 ± 0.3 mmol/L, the “HDL CHS” value [1, 9] was 0.91 ± 0.02 mmol/L and the “LDL CHS” value [1, 9] was 3.20 ± 0.1 mmol/L. The TG [1, 9] was 1.09 ± 0.05 mmol/L and the “Total CHS” value [1, 9] was 3.8 ± 0.1 mmol/L.
